Results on 11 compounds are retold here after patent publication US4532202A, “Coupler for photography” (Konishiroku Photo Industry Co., Ltd., priority 1982, dated 1985).

Series [1] can be described thus: Solubility test of couplers in di-n-butyl phthalate / ethyl acetate, visual evaluation of crystal precipitation. The following applies: 1 g coupler in 1 ml di-n-butyl phthalate and 4 ml ethyl acetate, dissolved at 70° C., left to stand at 20° C. Further details: key: A: no precipitation; B: slight precipitation; C: precipitation in large amount. In kind it is physicochemical. The method, then:
Solubility tests were conducted by use of the couplers for photography of this invention and Control couplers as indicated in Table 2 below. Each one gram of respective couplers was added to a mixture of 1 ml of di-n-butyl phthalate and 4 ml of ethyl acetate and the resulting mixture was heated at 70° C. for complete dissolution, followed by sealing with a stopper. Each sample was left to stand at 20° C. and precipitation of crystals was evaluated by visual observation. In Table 2, in the evaluation column, A represents no precipitation, B slight precipitation and C precipitation in large amount.

A short description of series [2]: Photographic characteristics (sensitivity, maximum density, maximum absorption) of silver halide color photographic material containing coupler. The settings on record: cyan dye formed. The procedure:
The resultant solution was mixed with 5 ml of an aqueous 10% solution of Alkanol B (aklylnaphthalene sulfonate, produced by Du Pont de Nemours & Co.) and 200 ml of an aqueous 5% gelatin solution and emulsified by means of a colloid mill to prepare respective coupler dispersions. Then, each of these coupler dispersions was added to 500 g of a gelatin-silver chlorobromide emulsion, and the mixture was applied on polyethylene coated paper, followed by drying, to prepare six kinds of light-sensitive silver halide color photographic materials. These samples were subjected to wedge exposure following the conventional procedure and then processed as follows.
Processing step (30° C.)
Color developing 3 min. 30 sec.
Bleach-fixing 1 min. 30 sec.
Washing with water 2 min.
In the following, compositions of respective processing solutions are shown.
[Composition of color developing solution]
4-Amino-3-methyl-N--ethyl-N--
(β-methanesulfonamidoethyl)-aniline sulfate
Sodium hexamethaphosphate 2.5 g
Anhydrous sodium sulfite 1.85 g
Made up to one liter with addition of water, and adjusted to pH 10.30 with sodium hydroxide.
[Composition of bleach-fixing solution]
Iron ammonium salt of ethylenediaminetetraacetic
Diammonium salt of ethylenediaminetetraacetic
Ammonium thiosulfate 124.5 g
Sodium metabisulfite 13.3 g
Anhydrous sodium sulfite 2.7 g
Made up to one liter with addition of water.
For samples obtained by the above processing, photographic characteristics were measured respectively. Measurements were conducted by use of PDA-60 Model sensitometer (produced by Konishiroku Photo Industry Co.) The results are shown in Table 3 below.
The sensitivity values are shown as relative sensitivities to the value of the sample having the highest sensitivity as 100.

`CC(C)C(Oc1ccc(C(C)(C)C)cc1C(C)(C)C)C(=O)Nc1cc(O)c(NC(=O)c2c(F)c(F)c(F)c(F)c2F)cc1Cl` (stereo not drawn) [Exemplary compound (I-3)]: in series [1], the “Evaluation of solubility After 6 hours” value was “A”, the “Evaluation of solubility After 12 hours” value is reported as “A” and the “Evaluation of solubility After one hour” value is reported as “A”.

On to `CCCCS(=O)(=O)Nc1ccc(OC(C(=O)Nc2cc(O)c(NC(=O)c3c(F)c(F)c(F)c(F)c3F)cc2Cl)C(C)C)cc1` (stereo not drawn) [Exemplary compound (I-11)], for which the Maximum absorption in series [2] was 657 nm.

As to `CCC(Oc1ccc(C(C)(C)CC)cc1C(C)(C)CC)C(=O)Nc1cc(Cl)c(C)c(Cl)c1O` (stereo not drawn) [Control coupler (E)], the Maximum absorption in series [2] came out at 654 nm.

With `CCCCCCCCCCCCC(Oc1ccc(C(C)(C)CC)cc1C(C)(C)CC)C(=O)Nc1cc(O)c(NC(=O)c2c(F)c(F)c(F)c(F)c2F)cc1Cl` (stereo not drawn) [Control coupler (D)], in series [1], the “Evaluation of solubility After 6 hours” value is listed as “B”, the “Evaluation of solubility After 12 hours” value was “C” and the “Evaluation of solubility After one hour” value was “B”.

`CCC(C)(C)c1ccc(OC(C(=O)Nc2cc(O)c(NC(=O)c3c(F)c(F)c(F)c(F)c3F)cc2Cl)C(C)C)c(C(C)(C)CC)c1` (stereo not drawn) [Exemplary compound (I-2), 2-(2,3,4,5,6-pentafluoro)benazmido-4-chloro-5-[α-(2,4-di-t-amylphenoxy)-β-methylbutaneamido]phenol]: the Maximum absorption in series [2] is 655 nm. Besides, in series [1], the “Evaluation of solubility After 6 hours” value is recorded as “A”, the “Evaluation of solubility After 12 hours” value was “A” and the “Evaluation of solubility After one hour” value is “A”.

For `CCC(C)C(Oc1ccc(C(C)(C)CC)cc1C(C)(C)CC)C(=O)Nc1cc(O)c(NC(=O)c2c(F)c(F)c(F)c(F)c2F)cc1Cl` (stereo not drawn) [Exemplary compound (I-4)], in series [1], the “Evaluation of solubility After 6 hours” value was “A”, the “Evaluation of solubility After 12 hours” value is “A” and the “Evaluation of solubility After one hour” value was “A”.

For `CCCCCCCCCCCCC(Oc1ccc(O)c(C(C)(C)C)c1)C(=O)Nc1ccc(NC(=O)c2ccccc2F)c(O)c1` (stereo not drawn) [Control coupler (G)], in series [2], the Maximum absorption was found to be 640 nm.

As to `CCC(Oc1ccc(C(C)(C)CC)cc1C(C)(C)CC)C(=O)Nc1cc(O)c(NC(=O)c2c(F)c(F)c(F)c(F)c2F)cc1Cl` (stereo not drawn) [Control coupler (B)], in series [1], the “Evaluation of solubility After 6 hours” value is listed as “C”, the “Evaluation of solubility After 12 hours” value is “C” and the “Evaluation of solubility After one hour” value is listed as “B”.

For `CCCCCCCCC(Oc1ccc(C(C)(C)CC)cc1C(C)(C)CC)C(=O)Nc1cc(O)c(NC(=O)c2c(F)c(F)c(F)c(F)c2F)cc1Cl` (stereo not drawn) [Control coupler (C)], in series [1], the “Evaluation of solubility After 6 hours” value was “C”, the “Evaluation of solubility After 12 hours” value is reported as “C” and the “Evaluation of solubility After one hour” value is on record as “B”.

Turning to `CCCCCCCCCCCCCCCc1cccc(OC(C(=O)Nc2cc(O)c(NC(=O)c3c(F)c(F)c(F)c(F)c3F)cc2Cl)C(C)C)c1` (stereo not drawn) [Exemplary compound (I-10), 2-(2,3,4,5,6-pentafluoro)benzamido-4-chloro-5-[α-(m-pentadecylphenoxy)-β-methylbutaneamido]phenol], in series [2], the Maximum absorption was 654 nm.

For `CCCCCCCCCCCCC(Oc1ccc(NS(=O)(=O)CCCC)cc1)C(=O)Nc1cc(O)c(NC(=O)c2ccccc2)cc1Cl` (stereo not drawn) [Control coupler (F)], in series [2], the Maximum absorption is 641 nm.
